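Five compound concentrations were applied to cells in 96-well plates for 48 hours; endpoints were derived by simple linear interpolation of the resulting dose-response curve. Abbreviation: GI50, concentration required for 50% inhibition of growth.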 Active and inactive are the calls of the source. Cut-off read from the data, not from the text of the source: active = GI50 up to about 1.1 µM and inactive = higher. Where only a bound is given, the exact number is not on record here.

Some test systems named below: SK-MEL-5; MOLT-4; SF-268; UO-31; EKVX; MDA-N; CCRF-CEM; TK-10; COLO 205; NCI-H522; OVCAR-4; DU-145; SNB-75; KM12; IGROV-1; OVCAR-5; 786-0; A549; HCC 2998; UACC-62.
Common to all, as to assay: NCI tumour cell line growth inhibition, 48 h

In the case of `O=[N+]([O-])C(=C(Sc1ccccc1)Sc1ccccc1)C(Cl)=C(Cl)Cl`, the GI50 with SK-MEL-5 was 1.69 µM (inactive); in the assay with MOLT-4, 0.051 µM (active); with SF-268 it was 2 µM (inactive); with UO-31 it was 0.171 µM (active); in the assay with EKVX it was 2.05 µM (inactive); with MDA-N, 0.23 µM (active). Besides, the GI50 with CCRF-CEM was 0.0189 µM (active); in the assay with TK-10, 0.0948 µM (active); in the assay on COLO 205 it was 0.157 µM (active); in the assay with NCI-H522 it was 0.0776 µM (active); in the assay on OVCAR-4 it was 0.401 µM (active); in the assay with DU-145, 1.11 µM (active). For the same compound, the GI50 in the assay with SNB-75 is 4.54 µM (inactive); in the assay on KM12, 2.44 µM (inactive); in the assay on IGROV-1, 1.19 µM (inactive); in the assay with OVCAR-5, 0.486 µM (active); in the assay with 786-0 it was 0.0703 µM (active); in the assay with A549 it was 2.22 µM (inactive). Moreover, the GI50 in the assay on HCC 2998 was 2.39 µM (inactive); in the assay with UACC-62, 0.75 µM (active).

With `COc1cc2c3c(n(Cc4ccccc4)c(=O)c2cc1OC)-c1ccccc1C3=O`, the GI50 with SK-MEL-5 was > 100 µM (inactive); with MOLT-4, 20.5 µM (inactive); with SF-268, 82.2 µM (inactive); in the assay on UO-31 it was > 100 µM (inactive); with EKVX, > 100 µM (inactive); in the assay with MDA-N, > 100 µM (inactive). Further, the GI50 in the assay on CCRF-CEM is 17.9 µM (inactive); with TK-10, > 100 µM (inactive); with COLO 205 it was > 100 µM (inactive); with NCI-H522 it was > 100 µM (inactive); in the assay with OVCAR-4 it was > 100 µM (inactive); with DU-145 it was > 100 µM (inactive). Besides, the GI50 in the assay on SNB-75 was 32.3 µM (inactive); in the assay on KM12 it was > 100 µM (inactive); in the assay on IGROV-1 it was > 100 µM (inactive); in the assay with OVCAR-5 it was > 100 µM (inactive); in the assay on 786-0, 93.5 µM (inactive); in the assay on A549 it was > 100 µM (inactive). Further, the GI50 in the assay with HCC 2998 and with UACC-62 was > 100 µM (inactive) throughout.

For the compound `C/C=C1/CN2CCC3(O)c4ccccc4N4C=C(C(=O)OC)C1CC2C43O` (stereo not given), the GI50 was > 100 µM (inactive) in the assay with SK-MEL-5; 84.1 µM (inactive) in the assay with MOLT-4; > 100 µM (inactive) in the assay with SF-268; > 100 µM (inactive) in the assay on UO-31; > 100 µM (inactive) in the assay on EKVX; > 100 µM (inactive) with MDA-N. Moreover, the GI50 in the assay on CCRF-CEM, with TK-10, in the assay with COLO 205, in the assay with NCI-H522, with OVCAR-4 and in the assay on DU-145 was > 100 µM (inactive) in each case. Also, the GI50 in the assay on SNB-75, with KM12, in the assay with IGROV-1, in the assay on OVCAR-5, in the assay with 786-0 and with A549 was > 100 µM (inactive) each time. Also, the GI50 in the assay on HCC 2998 and in the assay on UACC-62 was > 100 µM (inactive) throughout.

The values are drawn from ChEMBL document CHEMBL1201862, “PubChem BioAssay data set” (2004).
